Results from US8192962B2, “Processes for detecting toxic substances” (Daikin Industries, Ltd., priority 2001, dated 2012).

Test system: Energy system protein genes
Test: DNA chip mRNA expression in yeast, energy system protein genes (Table 4)
Format: cell-based, Saccharomyces cerevisiae S288C
In short: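 Value is the scanned fluorescence intensity ratio of exposed versus chemical-free cells. Log-phase S288C yeast in YPD at 25° C. received one toxic substance for two hours, dosed to slow growth without killing; Cy3/Cy5-labeled cDNA from oligo-dT-purified mRNA was hybridized to a whole-genome chip at 65° C.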

CCCCCCCCCCCCOS(=O)(=O)[O-].[Na+] [(18), sodium lauryl sulfate]
The level of expressed mRNA in the presence of chemical substance/The level of expressed mRNA in the absence of chemical substance (yeast gene YAL060W): 1.8 | The level of expressed mRNA in the presence of chemical substance/The level of expressed mRNA in the absence of chemical substance (yeast gene YBL058W, cells incubated two hours with the chemical substance): 1.4 | The level of expressed mRNA in the presence of chemical substance/The level of expressed mRNA in the absence of chemical substance (yeast gene YBL099W, cells incubated two hours with the chemical substance): 1.2 | The level of expressed mRNA in the presence of chemical substance/The level of expressed mRNA in the absence of chemical substance (yeast gene YBR001C, cells incubated two hours with the chemical substance): 1.6 | The level of expressed mRNA in the presence of chemical substance/The level of expressed mRNA in the absence of chemical substance (yeast gene YBR185C, cells incubated two hours with the chemical substance): 1.3 | The level of expressed mRNA in the presence of chemical substance/The level of expressed mRNA in the absence of chemical substance (yeast gene YBR221C, cells incubated two hours with the chemical substance): 1.0 | The level of expressed mRNA in the presence of chemical substance/The level of expressed mRNA in the absence of chemical substance (yeast gene YCL040W): 1.7 | The level of expressed mRNA in the presence of chemical substance/The level of expressed mRNA in the absence of chemical substance (yeast gene YCR012W): 1.3 | The level of expressed mRNA in the presence of chemical substance/The level of expressed mRNA in the absence of chemical substance (yeast gene YCR046C, cells incubated two hours with the chemical substance): 1.0 | The level of expressed mRNA in the presence of chemical substance/The level of expressed mRNA in the absence of chemical substance (yeast gene YCR105W, cells incubated two hours with the chemical substance): 1.1 | The level of expressed mRNA in the presence of chemical substance/The level of expressed mRNA in the absence of chemical substance (yeast gene YDL021W): 3.2 | The level of expressed mRNA in the presence of chemical substance/The level of expressed mRNA in the absence of chemical substance (yeast gene YDL067C, cells incubated two hours with the chemical substance): 1.7 | The level of expressed mRNA in the presence of chemical substance/The level of expressed mRNA in the absence of chemical substance (yeast gene YDL078C, cells incubated two hours with the chemical substance): 2.0 | The level of expressed mRNA in the presence of chemical substance/The level of expressed mRNA in the absence of chemical substance (yeast gene YDL107W, cells incubated two hours with the chemical substance): 1.5 | The level of expressed mRNA in the presence of chemical substance/The level of expressed mRNA in the absence of chemical substance (yeast gene YDL174C): 4.0 | The level of expressed mRNA in the presence of chemical substance/The level of expressed mRNA in the absence of chemical substance (yeast gene YDL181W, cells incubated two hours with the chemical substance): 1.4 | The level of expressed mRNA in the presence of chemical substance/The level of expressed mRNA in the absence of chemical substance (yeast gene YDR001C): 1.6 | The level of expressed mRNA in the presence of chemical substance/The level of expressed mRNA in the absence of chemical substance (yeast gene YDR050C, cells incubated two hours with the chemical substance): 2.3 | The level of expressed mRNA in the presence of chemical substance/The level of expressed mRNA in the absence of chemical substance (yeast gene YDR079W, cells incubated two hours with the chemical substance): 1.3 | The level of expressed mRNA in the presence of chemical substance/The level of expressed mRNA in the absence of chemical substance (yeast gene YDR178W, cells incubated two hours with the chemical substance): 2.3 | The level of expressed mRNA in the presence of chemical substance/The level of expressed mRNA in the absence of chemical substance (yeast gene YDR231C): 1.3 | The level of expressed mRNA in the presence of chemical substance/The level of expressed mRNA in the absence of chemical substance (yeast gene YDR298C, cells incubated two hours with the chemical substance): 1.6 | The level of expressed mRNA in the presence of chemical substance/The level of expressed mRNA in the absence of chemical substance (yeast gene YDR377W, cells incubated two hours with the chemical substance): 2.5 | The level of expressed mRNA in the presence of chemical substance/The level of expressed mRNA in the absence of chemical substance (yeast gene YDR529C, cells incubated two hours with the chemical substance): 2.3 | The level of expressed mRNA in the presence of chemical substance/The level of expressed mRNA in the absence of chemical substance (yeast gene YEL024W, cells incubated two hours with the chemical substance): 1.5 | The level of expressed mRNA in the presence of chemical substance/The level of expressed mRNA in the absence of chemical substance (yeast gene YEL039C, cells incubated two hours with the chemical substance): 1.1 | The level of expressed mRNA in the presence of chemical substance/The level of expressed mRNA in the absence of chemical substance (yeast gene YER178W): 0.9 | The level of expressed mRNA in the presence of chemical substance/The level of expressed mRNA in the absence of chemical substance (yeast gene YFL057C): 1.3 | The level of expressed mRNA in the presence of chemical substance/The level of expressed mRNA in the absence of chemical substance (yeast gene YFR053C): 2.2 | The level of expressed mRNA in the presence of chemical substance/The level of expressed mRNA in the absence of chemical substance (yeast gene YGL018C, cells incubated two hours with the chemical substance): 1.0 | The level of expressed mRNA in the presence of chemical substance/The level of expressed mRNA in the absence of chemical substance (yeast gene YGL062W): 0.9 | The level of expressed mRNA in the presence of chemical substance/The level of expressed mRNA in the absence of chemical substance (yeast gene YGL187C, cells incubated two hours with the chemical substance): 2.4 | The level of expressed mRNA in the presence of chemical substance/The level of expressed mRNA in the absence of chemical substance (yeast gene YGL191W, cells incubated two hours with the chemical substance): 1.7 | The level of expressed mRNA in the presence of chemical substance/The level of expressed mRNA in the absence of chemical substance (yeast gene YGL205W, cells incubated two hours with the chemical substance): 9.1 | The level of expressed mRNA in the presence of chemical substance/The level of expressed mRNA in the absence of chemical substance (yeast gene YGL256W, cells incubated two hours with the chemical substance): 0.8 | The level of expressed mRNA in the presence of chemical substance/The level of expressed mRNA in the absence of chemical substance (yeast gene YGR008C): 4.2 | The level of expressed mRNA in the presence of chemical substance/The level of expressed mRNA in the absence of chemical substance (yeast gene YGR043C): 4.8 | The level of expressed mRNA in the presence of chemical substance/The level of expressed mRNA in the absence of chemical substance (yeast gene YGR062C, cells incubated two hours with the chemical substance, 25° C., YPD medium): 1.1 | The level of expressed mRNA in the presence of chemical substance/The level of expressed mRNA in the absence of chemical substance (yeast gene YGR087C, cells incubated two hours with the chemical substance): 0.6 | The level of expressed mRNA in the presence of chemical substance/The level of expressed mRNA in the absence of chemical substance (yeast gene YGR174C, cells incubated two hours with the chemical substance): 2.3 | The level of expressed mRNA in the presence of chemical substance/The level of expressed mRNA in the absence of chemical substance (yeast gene YGR192C): 1.3 | The level of expressed mRNA in the presence of chemical substance/The level of expressed mRNA in the absence of chemical substance (yeast gene YGR244C): 3.1 | The level of expressed mRNA in the presence of chemical substance/The level of expressed mRNA in the absence of chemical substance (yeast gene YGR254W): 1.2 | The level of expressed mRNA in the presence of chemical substance/The level of expressed mRNA in the absence of chemical substance (yeast gene YHR179W): 1.6 | The level of expressed mRNA in the presence of chemical substance/The level of expressed mRNA in the absence of chemical substance (yeast gene YIL160C): 3.0 | The level of expressed mRNA in the presence of chemical substance/The level of expressed mRNA in the absence of chemical substance (yeast gene YIR031C, cells incubated two hours with the chemical substance): 0.8 | The level of expressed mRNA in the presence of chemical substance/The level of expressed mRNA in the absence of chemical substance (yeast gene YJL052W): 1.9 | The level of expressed mRNA in the presence of chemical substance/The level of expressed mRNA in the absence of chemical substance (yeast gene YJL121C, cells incubated two hours with the chemical substance): 1.0 | The level of expressed mRNA in the presence of chemical substance/The level of expressed mRNA in the absence of chemical substance (yeast gene YJL166W, cells incubated two hours with the chemical substance): 4.0 | The level of expressed mRNA in the presence of chemical substance/The level of expressed mRNA in the absence of chemical substance (yeast gene YJL216C, cells incubated two hours with the chemical substance): 2.0
